Test results taken from ChEMBL document CHEMBL4376803, “Recent Advances in the Exploration of Therapeutic Analogues of Gramicidin S, an Old but Still Potent Antimicrobial Peptide” (J Med Chem, 2019).
Values after ≈ are worked out from the molar mass of the structure shown. Square brackets hold non-standard residues; d marks the D form. Peptide text beside a SMILES is read from it. Orn = NCCC[C@H](N)C(=O)O

Legend:
Escherichia coli [1] = experiment: Antibacterial activity against Escherichia coli K-12 ATCC 29181 after overnight incubation by broth microdilution method; format: functional
[2] = test system: Staphylococcus epidermidis; experiment: Antibacterial activity against Staphylococcus epidermidis ATCC 27626 after overnight incubation by broth microdilution method; format: functional
Salmonella = experiment: Antibacterial activity against Salmonella after overnight incubation by broth microdilution method; format: functional
[3] = Haemolytic activity in human RBC incubated for 1 hr; format: ADME, cell-based, Erythrocyte; conditions: human red blood cells
Staphylococcus aureus [4] = experiment: Antibacterial activity against vancomycin-resistant Staphylococcus aureus Mu50/ATCC 700699 after overnight incubation by broth microdilution method; format: functional
Klebsiella pneumoniae = experiment: Antibacterial activity against Klebsiella pneumonia K6 ATCC 700603 after overnight incubation by broth microdilution method; format: functional; conditions: 700603 K6
Staphylococcus aureus [5] = experiment: Antibacterial activity against multidrug-resistant Staphylococcus aureus ATCC BAA-44 after overnight incubation by broth microdilution method; format: functional
Erythrocyte [6] = experiment: Haemolytic activity in human RBC after 4 hrs by visual method; format: ADME, cell-based
Staphylococcus aureus [7] = experiment: Antibacterial activity against Staphylococcus aureus K147 after overnight incubation by microtiter dilution method; format: functional
Enterococcus faecalis = experiment: Antibacterial activity against Enterococcus faecalis C625 after overnight incubation by microtiter dilution method; format: functional
[8] = test system: Staphylococcus epidermidis; experiment: Antibacterial activity against Staphylococcus epidermidis C621 after 22 hrs by double dilution method; format: functional; conditions: C621, 22 h
Pseudomonas aeruginosa = experiment: Antibacterial activity against Pseudomonas aeruginosa H188 after overnight incubation by microtiter dilution method; format: functional
Escherichia coli [9] = experiment: Antibacterial activity against Escherichia coli DC2 after overnight incubation by microtiter dilution method; format: functional
[10] = Therapeutic index, ratio of HC90 for hemolytic activity in human erythrocytes to MIC against Staphylococcus epidermidis ATCC 12228; format: toxicity, cell-based; conditions: read-out: TI
Lipopolysaccharide (LPS) = experiment: Displacement of Dansyl-polymyxin from Pseudomonas aeruginosa LPS by fluorescence method; conditions: read-out: I50
[11] = Therapeutic index, ratio of HD100 for hemolytic activity in human erythrocytes to MIC against methicillin-resistant Staphylococcus aureus ATCC 4330; format: toxicity, cell-based; conditions: read-out: TI
[12] = Haemolytic activity in human erythrocytes incubated for 30 mins; format: ADME, cell-based, Erythrocyte
[13] = Hemolytic activity in sheep RBC incubated for 30 mins; format: ADME, cell-based, Ovis aries, Erythrocyte; conditions: sheep red blood cells
[14] = Therapeutic index, ratio of HD100 for hemolytic activity in human RBC to MIC against Candida albicans; format: toxicity; conditions: human red blood cells, read-out: TI
[15] = Therapeutic index, ratio of HC90 for hemolytic activity in human erythrocytes to MIC against Enterococcus faecalis ATCC 29212; format: toxicity, cell-based; conditions: read-out: TI
[16] = Therapeutic index, ratio of HD100 for hemolytic activity in human erythrocytes to MIC against Staphylococcus aureus ATCC 29213; format: toxicity, cell-based; conditions: read-out: TI
[17] = Therapeutic index, ratio of HD100 for hemolytic activity in human RBC to MIC against Pseudomonas aeruginosa H187; format: toxicity; conditions: human red blood cells, read-out: TI
[18] = (§1) Haemolytic activity in human erythrocytes; format: ADME, cell-based, Erythrocyte; conditions: human erythrocytes
Erythrocyte [19] = experiment: as §1; format: ADME, cell-based; conditions: erythrocyte
[20] = Hemolytic activity against RBC (unknown origin) at 100 ul after 4 hrs; format: ADME, cell-based, Erythrocyte; conditions: red blood cells (unknown origin)
[21] = Therapeutic index, ratio of HD100 for hemolytic activity in human RBC to MIC against Staphylococcus aureus K147; format: toxicity; conditions: human red blood cells, read-out: TI
[22] = Haemolytic activity in human erythrocytes at 100 ug/ml after 30 mins relative to control; format: ADME, cell-based, Erythrocyte; conditions: read-out: Activity
[23] = Therapeutic index, ratio of HD100 for hemolytic activity in human erythrocytes to MIC against Pseudomonas aeruginosa ATCC 27853; format: toxicity, cell-based; conditions: read-out: TI
[24] = Therapeutic index, ratio of HD100 for hemolytic activity in human erythrocytes to MIC against Enterococcus faecalis ATCC 29212; format: toxicity, cell-based; conditions: read-out: TI
[25] = Haemolytic activity in human RBC after 4 hrs; format: ADME, cell-based, Erythrocyte; conditions: human red blood cells
[26] = Therapeutic index, ratio of HD100 for hemolytic activity in human RBC to MIC against Escherichia coli UB1005; format: toxicity; conditions: human red blood cells, read-out: TI
[27] = Therapeutic index, ratio of HC90 for hemolytic activity in human erythrocytes to MIC against Escherichia coli ATCC 25922; format: toxicity, cell-based; conditions: read-out: TI
[28] = Hemolytic activity in sheep erythrocytes; format: ADME, cell-based, Ovis aries, Erythrocyte
[29] = Therapeutic index, ratio of HD100 for hemolytic activity in human erythrocytes to MIC against Escherichia coli ATCC 25922; format: toxicity, cell-based; conditions: read-out: TI
Erythrocyte [30] = experiment: Haemolytic activity in human RBC after 30 mins by spectrophotometric analysis; format: ADME, cell-based; conditions: 0.5 h
[31] = Therapeutic index, ratio of HC90 for hemolytic activity in human erythrocytes to MIC against Staphylococcus aureus ATCC 25923; format: toxicity, cell-based; conditions: read-out: TI
[32] = Therapeutic index, ratio of HD100 for hemolytic activity in human RBC to MIC against Enterococcus faecalis ATCC 29212; format: toxicity; conditions: human red blood cells, read-out: TI

CC(C)C[C@@H]1NC(=O)[C@H](CCCN)NC(=O)[C@H](C(C)C)NC(=O)[C@H](C)N(C)C(=O)[C@@H](Cc2ccccc2)NC(=O)[C@H](C)N(C)C(=O)[C@@H](CCCN)NC(=O)[C@H](C(C)C)NC(=O)[C@@H]2CCCN2C(=O)[C@@H](Cc2ccccc2)NC1=O
MIC (Escherichia coli [1]): 28 µg/mL (≈ 25.4 µM) | MIC [2]: 1.8 µg/mL (≈ 1.63 µM) | MIC (Salmonella): 28 µg/mL (≈ 25.4 µM) | HC50 at 1 h [3]: 69.2 µg/mL | MIC (Staphylococcus aureus [4]): 3.5 µg/mL (≈ 3.18 µM) | MIC (Klebsiella pneumoniae): 7 µg/mL (≈ 6.36 µM) | MIC (Staphylococcus aureus [5]): 7 µg/mL (≈ 6.36 µM)

CC(C)C[C@@H]1NC(=O)[C@H](CCCN)NC(=O)[C@H](C(C)C)NC(=O)[C@@H]2CC[C@@H]3CC[C@H](NC(=O)[C@H](CC(C)C)NC(=O)[C@@H](CCCN)NC(=O)[C@H](C(C)C)NC(=O)[C@@H]4CC[C@@H]5CC[C@H](NC1=O)C(=O)N54)C(=O)N32
HC90 (Erythrocyte [6]): 400 µg/mL | MIC (Staphylococcus aureus [7]): 12.5 µg/mL (≈ 12.3 µM) | MIC (Enterococcus faecalis): 25 µg/mL (≈ 24.7 µM) | MIC [8]: 12.5 µg/mL (≈ 12.3 µM) | MIC (Pseudomonas aeruginosa): 12.5 µg/mL (≈ 12.3 µM) | MIC (Escherichia coli [9]): 25 µg/mL (≈ 24.7 µM)

CC(C)C[C@@H]1NC(=O)[C@H](CCCN)NC(=O)[C@H](C(C)C)NC(=O)[C@@H]2CCCN2C(=O)[C@@H](Cc2ccccc2)NC(=O)[C@H](CC(C)C)NC(=O)[C@H](CCCN)NC(=O)[C@H](C(C)C)NC(=O)[C@@H]2CCCN2C(=O)[C@@H](Cc2ccccc2)NC1=O (cyclo(L[dF]PV[Orn]L[dF]PV[Orn]))
selectivity ratio [10]: 6 | IC50 (Lipopolysaccharide (LPS)): 295 µM | HD100 (Erythrocyte [6]): 12.5 µg/mL | selectivity ratio [11]: 7.8 | HC50 at 0.5 h [12]: 5 to 10 µg/mL | HC50 at 0.5 h [13]: 25 to 35 µg/mL | selectivity ratio [14]: 4 | selectivity ratio [15]: 1.5 | selectivity ratio [16]: 15.6 | selectivity ratio [17]: 0.6 | HC50 [18]: 12 µg/mL | Activity (Erythrocyte [19]): 62.5 µg/mL | HC50 at 4 h [20]: 5 to 31.2 µg/mL | selectivity ratio [21]: 8.3 | hemolysis at 0.5 h, 100 ug/ml [22]: 80% | selectivity ratio [23]: 1 | HC50 at 1 h [3]: 14.3 µg/mL | selectivity ratio [24]: 7.8 | HC50 at 4 h [25]: 17.5 µg/mL | selectivity ratio [26]: 2 | selectivity ratio [27]: 0.38 | HC50 [28]: 25 to 35 µg/mL | selectivity ratio [29]: 2 | HC90 (Erythrocyte [30]): 12 µg/mL | selectivity ratio [31]: 3 | selectivity ratio [32]: 4.5
